Laboratory results: US4684664A, “Derivatives of β-(4-isocyano-1,2,3,4-diepoxycyclopentyl) acrylic acid” (Kureha Kagaku Kogyo Kabushiki Kaisha, priority 1984, dated 1987)
≈ marks a conversion by molar mass, not a printed value.

How the values were obtained:
Type in all cases: cell-based
[1] = tested on: Staphylococcus aureus FDA 209PJc-1; assay: Antibacterial activity, agar-dilution MIC, organism No. 1; conditions: Staphylococcus aureus, FDA209PJC1; Organism No. 1, bouillon-agar; read-out: Minimum Inhibitory Concentration
Outline: (§1)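 Minimum inhibitory concentration determined on solid bouillon agar by the agar-dilution technique, with values stated as μg/ml.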

[2] = tested on: Staphylococcus aureus Terajima; assay: Antibacterial activity, agar-dilution MIC, organism No. 2; conditions: Staphylococcus aureus; Organism No. 2, bouillon-agar; read-out: Minimum Inhibitory Concentration
Outline: as §1

[3] = tested on: Staphylococcus aureus MS 353; assay: Antibacterial activity, agar-dilution MIC, organism No. 3; conditions: Staphylococcus aureus, MS353; Organism No. 3, bouillon-agar; read-out: Minimum Inhibitory Concentration
Outline: as §1

[4] = tested on: Streptococcus pyogenes Cook; assay: Antibacterial activity, agar-dilution MIC, organism No. 4; conditions: Streptococcus pyogenes; Organism No. 4, bouillon-agar; read-out: Minimum Inhibitory Concentration
Outline: as §1

[5] = tested on: Escherichia coli NIHJ-JC-2; assay: Antibacterial activity, agar-dilution MIC, organism No. 5; conditions: Escherichia coli, NIHJJC2; Organism No. 5, bouillon-agar; read-out: Minimum Inhibitory Concentration
Outline: as §1

[6] = tested on: Escherichia coli K12 C600 IAM 1264; assay: Antibacterial activity, agar-dilution MIC, organism No. 6; conditions: Escherichia coli, IAM1264; Organism No. 6, bouillon-agar; read-out: Minimum Inhibitory Concentration
Outline: as §1

[7] = tested on: Klebsiella pneumoniae PCI-602; assay: Antibacterial activity, agar-dilution MIC, organism No. 7; conditions: Klebsiella pneumoniae, PCI602; Organism No. 7, bouillon-agar; read-out: Minimum Inhibitory Concentration
Outline: as §1

[8] = tested on: Salmonella typhimurium IID 971; assay: Antibacterial activity, agar-dilution MIC, organism No. 8; conditions: Salmonella enterica; Organism No. 8, bouillon-agar; read-out: Minimum Inhibitory Concentration
Outline: as §1

Salmonella typhi 901 = assay: Antibacterial activity, agar-dilution MIC, organism No. 9; conditions: Salmonella enterica, TYPHI, read-out: Minimum Inhibitory Concentration
Outline: as §1

[9] = tested on: Salmonella paratyphi-A 1015; assay: Antibacterial activity, agar-dilution MIC, organism No. 10; conditions: Salmonella enterica, PARATYPHI, read-out: Minimum Inhibitory Concentration
Outline: as §1

[10] = tested on: Salmonella shottmuelleri 8006; assay: Antibacterial activity, agar-dilution MIC, organism No. 11; conditions: Salmonella, 8006; Organism No. 11, bouillon-agar; read-out: Minimum Inhibitory Concentration
Outline: as §1

[11] = tested on: Salmonella enteritidis G 14; assay: Antibacterial activity, agar-dilution MIC, organism No. 12; conditions: Salmonella enterica, ENTERITIDIS; Organism No. 12, bouillon-agar; read-out: Minimum Inhibitory Concentration
Outline: as §1

[12] = tested on: Serratia marcescens IAM 1184; assay: Antibacterial activity, agar-dilution MIC, organism No. 13; conditions: Serratia marcescens, IAM1184; Organism No. 13, bouillon-agar; read-out: Minimum Inhibitory Concentration
Outline: as §1

[13] = tested on: Bacillus subtilis ATCC 6633; assay: Antibacterial activity, agar-dilution MIC, organism No. 14; conditions: Bacillus subtilis, ATCC6633; Organism No. 14, bouillon-agar; read-out: Minimum Inhibitory Concentration
Outline: as §1

[14] = tested on: Pseudomonas aeruginosa IFO 3445; assay: Antibacterial activity, agar-dilution MIC, organism No. 15; conditions: Pseudomonas aeruginosa, IFO3445; Organism No. 15, bouillon-agar; read-out: Minimum Inhibitory Concentration
Outline: as §1

[15] = tested on: Pseudomonas aeruginosa NCTC 10490; assay: Antibacterial activity, agar-dilution MIC, organism No. 16; conditions: Pseudomonas aeruginosa, NCTC10490; Organism No. 16, bouillon-agar; read-out: Minimum Inhibitory Concentration
Outline: as §1

[16] = tested on: Pseudomonas aeruginosa PAO 1; assay: Antibacterial activity, agar-dilution MIC, organism No. 17; conditions: Pseudomonas aeruginosa, PAO1; Organism No. 17, bouillon-agar; read-out: Minimum Inhibitory Concentration
Outline: as §1

[17] = tested on: Proteus morganii IFO 3848; assay: Antibacterial activity, agar-dilution MIC, organism No. 18; conditions: Morganella morganii, IFO3848; Organism No. 18, bouillon-agar; read-out: Minimum Inhibitory Concentration
Outline: as §1

[18] = tested on: Proteus mirabilis IFO 3849; assay: Antibacterial activity, agar-dilution MIC, organism No. 19; conditions: Proteus mirabilis, IFO3849; Organism No. 19, bouillon-agar; read-out: Minimum Inhibitory Concentration
Outline: as §1

Proteus vulgaris OX-19 = assay: Antibacterial activity, agar-dilution MIC, organism No. 20; conditions: Proteus vulgaris, OX19; Organism No. 20, bouillon-agar; read-out: Minimum Inhibitory Concentration
Outline: as §1

Proteus vulgaris HX-19 = assay: Antibacterial activity, agar-dilution MIC, organism No. 21; conditions: Proteus vulgaris, HX19; Organism No. 21, bouillon-agar; read-out: Minimum Inhibitory Concentration
Outline: as §1

[19] = tested on: Proteus rettgeri IFO 3850; assay: Antibacterial activity, agar-dilution MIC, organism No. 22; conditions: Providencia rettgeri, IFO3850; Organism No. 22, bouillon-agar; read-out: Minimum Inhibitory Concentration
Outline: as §1

[20] = tested on: Enterobacter aerogenes ATCC 13048; assay: Antibacterial activity, agar-dilution MIC, organism No. 23; conditions: Klebsiella aerogenes, ATCC13048; Organism No. 23, bouillon-agar; read-out: Minimum Inhibitory Concentration
Outline: as §1

Enterobacter cloacae 963 = assay: Antibacterial activity, agar-dilution MIC, organism No. 24; conditions: Enterobacter cloacae, 963; Organism No. 24, bouillon-agar; read-out: Minimum Inhibitory Concentration
Outline: as §1

[21] = tested on: Micrococcus luteus ATCC 9341; assay: Antibacterial activity, agar-dilution MIC, organism No. 25; conditions: Micrococcus luteus, ATCC9341; Organism No. 25, bouillon-agar; read-out: Minimum Inhibitory Concentration
Outline: as §1

[22] = tested on: Streptococcus pyogenes IFO 3340; assay: Antibacterial activity, agar-dilution MIC, organism No. 26; conditions: Streptococcus pyogenes, IFO3340; Organism No. 26, bouillon-agar; read-out: Minimum Inhibitory Concentration
Outline: as §1

[23] = tested on: Streptococcus faecium IFO 3826; assay: Antibacterial activity, agar-dilution MIC, organism No. 27; conditions: Enterococcus faecium, IFO3826; Organism No. 27, bouillon-agar; read-out: Minimum Inhibitory Concentration
Outline: as §1

[24] = tested on: Mycoplasma pneumoniae IID817; assay: Antimycoplasmal activity, MIC by phenol red colour change, organism No. 28; conditions: Mycoplasma, IID817; Organism No. 28, PPLO broth + 1% glucose, 37° C.; read-out: Minimum Inhibitory Concentration (MIC)
Method: Mycoplasma pneumoniae IID817 was used as the test microorganism in a culture medium prepared by adding 1% of glucose to "PPLO broth (manufactured by Difco Co.) liquid culture medium" at 37° C. with phenol red as an indicator, thereby culturing the test microorganism.

[25] = tested on: Candida albicans IAM 4905; assay: Antifungal activity, agar-dilution MIC, organism No. 29; conditions: Candida albicans, IAM4905; Organism No. 29, bouillon-agar; read-out: Minimum Inhibitory Concentration
Outline: as §1

[26] = tested on: Aspergillus niger IFO 6342; assay: Antifungal activity, agar-dilution MIC, organism No. 30; conditions: Aspergillus niger, IFO6342; Organism No. 30, bouillon-agar; read-out: Minimum Inhibitory Concentration
Outline: as §1

SMILES	MIC [1] [µg/mL]	MIC [2] [µg/mL]	MIC [3] [µg/mL]	MIC [4] [µg/mL]	MIC [5] [µg/mL]	MIC [6] [µg/mL]	MIC [7] [µg/mL]	MIC [8] [µg/mL]	MIC (Salmonella typhi 901) [µg/mL]	MIC [9] [µg/mL]	MIC [10] [µg/mL]	MIC [11] [µg/mL]	MIC [12] [µg/mL]	MIC [13] [µg/mL]	MIC [14] [µg/mL]	MIC [15] [µg/mL]	MIC [16] [µg/mL]	MIC [17] [µg/mL]	MIC [18] [µg/mL]	MIC (Proteus vulgaris OX-19) [µg/mL]	further results
[C-]#[N+]C12CC3(/C=C/C(=O)Nc4cccc(C(F)(F)F)c4)OC3C1O2 (stereo not drawn) [compound 47]	< 0.05	0.2 (≈ 0.595 µM)	< 0.05	200 (≈ 595 µM)	200 (≈ 595 µM)	200 (≈ 595 µM)	< 0.05	3.13 (≈ 9.31 µM)	3.13 (≈ 9.31 µM)	3.13 (≈ 9.31 µM)	0.1 (≈ 0.297 µM)	3.13 (≈ 9.31 µM)	25 (≈ 74.3 µM)	0.78 (≈ 2.32 µM)	> 200	> 200	> 200	< 0.05	> 200	< 0.05	MIC (Proteus vulgaris HX-19): < 0.05 µg/mL; MIC [19]: 50 µg/mL (≈ 149 µM); MIC [20]: > 200 µg/mL; MIC (Enterobacter cloacae 963): > 200 µg/mL; MIC [21]: 0.78 µg/mL (≈ 2.32 µM); MIC [22]: 0.39 µg/mL (≈ 1.16 µM); MIC [23]: 3.13 µg/mL (≈ 9.31 µM); MIC [24]: < 0.2 µg/mL; MIC [25]: 1.56 µg/mL (≈ 4.64 µM); MIC [26]: 3.13 µg/mL (≈ 9.31 µM)
[C-]#[N+]C12CC3(/C=C/C(=O)Nc4ccc(C(=O)OC)cc4)OC3C1O2 (stereo not drawn) [compound 49]	< 0.05	< 0.05	< 0.05	12.5 (≈ 38.3 µM)	50 (≈ 153 µM)	50 (≈ 153 µM)	< 0.05	0.39 (≈ 1.2 µM)	0.1 (≈ 0.306 µM)	< 0.05	< 0.05	0.39 (≈ 1.2 µM)	12.5 (≈ 38.3 µM)	0.78 (≈ 2.39 µM)	> 200	> 200	> 200	12.5 (≈ 38.3 µM)	> 200	< 0.05	MIC (Proteus vulgaris HX-19): < 0.05 µg/mL; MIC [19]: < 0.05 µg/mL; MIC [20]: > 200 µg/mL; MIC (Enterobacter cloacae 963): 25 µg/mL (≈ 76.6 µM); MIC [21]: < 0.05 µg/mL; MIC [22]: < 0.05 µg/mL; MIC [23]: 25 µg/mL (≈ 76.6 µM); MIC [24]: < 0.2 µg/mL; MIC [25]: 1.56 µg/mL (≈ 4.78 µM); MIC [26]: 3.13 µg/mL (≈ 9.59 µM)
